Experimental findings from patent US9533978B2 (AstraZeneca AB, priority 2009, dated 2017) are described below.

The assay has as its target T1, Recombinant human TLR7 (Homo sapiens, UniProt Q9NYK1).
T1 construct: expressed in transfected cells; host or cells: HEK293 cell line stably expressing the pNiFty2-SEAP reporter plasmid; TLR7 in vector pUNO, blasticidin selection
T1 sequence (Q9NYK1 27-1049): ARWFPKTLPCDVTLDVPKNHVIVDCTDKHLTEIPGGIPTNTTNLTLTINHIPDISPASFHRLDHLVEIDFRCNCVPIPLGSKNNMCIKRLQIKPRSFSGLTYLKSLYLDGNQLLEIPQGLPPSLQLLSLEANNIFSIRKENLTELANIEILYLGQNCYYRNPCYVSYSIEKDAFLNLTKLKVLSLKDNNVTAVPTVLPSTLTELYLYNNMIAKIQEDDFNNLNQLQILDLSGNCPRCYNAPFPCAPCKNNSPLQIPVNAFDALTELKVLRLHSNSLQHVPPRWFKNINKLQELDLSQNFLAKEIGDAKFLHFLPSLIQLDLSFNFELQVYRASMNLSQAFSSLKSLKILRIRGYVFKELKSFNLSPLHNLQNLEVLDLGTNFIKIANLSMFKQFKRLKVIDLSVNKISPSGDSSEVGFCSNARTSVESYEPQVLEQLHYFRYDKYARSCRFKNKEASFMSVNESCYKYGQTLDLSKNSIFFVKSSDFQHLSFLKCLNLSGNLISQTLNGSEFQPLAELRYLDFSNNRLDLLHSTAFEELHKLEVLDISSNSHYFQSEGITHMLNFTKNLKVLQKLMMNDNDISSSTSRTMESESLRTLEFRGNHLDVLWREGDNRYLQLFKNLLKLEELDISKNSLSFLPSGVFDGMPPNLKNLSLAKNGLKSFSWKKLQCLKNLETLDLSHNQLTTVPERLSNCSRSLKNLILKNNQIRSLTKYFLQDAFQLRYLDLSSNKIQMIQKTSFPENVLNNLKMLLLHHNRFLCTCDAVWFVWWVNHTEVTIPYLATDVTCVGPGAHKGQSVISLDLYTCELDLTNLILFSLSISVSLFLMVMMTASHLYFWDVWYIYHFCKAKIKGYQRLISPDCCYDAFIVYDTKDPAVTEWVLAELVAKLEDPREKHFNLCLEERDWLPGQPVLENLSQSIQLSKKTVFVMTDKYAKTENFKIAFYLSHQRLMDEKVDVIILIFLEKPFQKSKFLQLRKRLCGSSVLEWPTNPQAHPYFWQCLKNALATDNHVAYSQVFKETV
Briefly: Human TLR7 assay (HEK293 SEAP reporter). Particulars: degree of TLR7 activation; SEAP induction in HEK293 cells stably expressing recombinant human TLR7 and pNiFty2-SEAP reporter, overnight incubation at 37° C., 0.1% (v/v) DMSO. Format: cell-based. The procedure: The ability of compounds to activate TLR7 in vitro was assessed using the human TLR7 assay described below.
Recombinant human TLR7 was stably expressed in a HEK293 cell line already stably expressing the pNiFty2-SEAP reporter plasmid; integration of the reporter gene was maintained by selection with the antibiotic zeocin. The most common variant sequence of human TLR7 (represented by the EMBL sequence AF240467) was cloned into the mammalian cell expression vector pUNO and transfected into this reporter cell-line. Transfectants with stable expression were selected using the antibiotic blasticidin. In this reporter cell-line, expression of secreted alkaline phosphatase (SEAP) is controlled by an NFkB/ELAM-1 composite promoter comprising five NFkB sites combined with the proximal ELAM-1 promoter. TLR signaling leads to the translocation of NFkB and activation of the promoter results in expression of the SEAP gene. TLR7-specific activation was assessed by determining the level of SEAP produced following overnight incubation of the cells at 37° C. with the standard compound in the presence of 0.1% (v/v) dimethylsulfoxide (DMSO). Concentration dependent induction of SEAP production by compounds was expressed as the concentration of compound which produced half of the maximal level of SEAP induction for that compound (EC50).

As for `CCCCCNc1nc(N)nc(C)c1Cc1ccc(OCCCN(C)C)cc1OC` [Example 11, 5-(4-(3-(Dimethylamino)propoxy)-2-methoxybenzyl)-6-methyl-N^4-pentylpyrimidine-2,4-diamine], the EC50 (as a rule, the concentration needed to bring the measured effect to its halfway point) is 2.51 nM.

With `CCCCCNc1nc(N)nc(C)c1Cc1ccc(C#CCN(C)C)cc1` [Example 30, 5-(4-(3-(Dimethylamino)prop-1-ynyl)benzyl)-6-methyl-N4-pentyl-pyrimidine-2,4-diamine], the EC50 is 100 nM.

With `COC(=O)Cc1cccc([C@@H](CCO)Nc2nc(N)nc(C)c2Cc2ccc(OCCCN(C)C)cc2OC)c1` [Example 35, (R)-Methyl 2-(3-(1-(2-amino-5-(4-(3-(dimethylamino)propoxy)-2-methoxybenzyl)-6-methylpyrimidin-4-ylamino)-3-hydroxypropyl)phenyl)acetate], the EC50 is 316 nM.

`CCCCCNc1nc(N)nc(C)c1Cc1ccccc1O` [Example 20, 2-((2-Amino-4-methyl-6-(pentylamino)pyrimidin-5-yl)methyl)phenol]: the EC50 was 126 nM.

With `CCCCCNc1nc(N)nc(C)c1Cc1ccc(C(=O)OC)cc1OC` [Example 12, Methyl 4-((2-amino-4-methyl-6-(pentylamino)pyrimidin-5-yl)methyl)-3-methoxybenzoate], the EC50 is 63.1 nM.

Turning to `CCCC[C@@H](CCO)Nc1nc(N)nc(C)c1Cc1ccc(C(=O)OC)cc1OC` [Example 14, (S)-Methyl 4-((2-amino-4-(1-hydroxyheptan-3-ylamino)-6-methyl-pyrimidin-5-yl)methyl)-3-methoxybenzoate], the EC50 is 10 nM.

On to `CCCCCNc1nc(N)nc(C)c1Cc1cccc(CN(C)C)c1` [Example 29, 5-(3-((Dimethylamino)methyl)benzyl)-6-methyl-N^4-pentylpyrimidine-2,4-diamine], for which the EC50 was 316 nM.
